# In US9695155B2, “Herbicidal substituted pyrimidinyloxy benzene compounds” (E. I. DU PONT DE NEMOURS AND COMPANY, priority 2013, dated 2017):
# How the values were obtained:
# sandbur = assay: Test F preemergence; type: in vivo, Cenchrus echinatus; conditions: 21 days, scale 0 to 100
# From the text: (§1) Seeds of plant species selected from bermudagrass (Cynodon dactylon), surinam grass (Brachiaria decumbens), large (Lg) crabgrass (Digitaria sanguinalis), crabgrass, naked (naked crabgrass, Digitaria nuda), foxtail, green (green foxtail, Setaria viridis), johnsongrass (Sorghum halepense), kochia (Kochia scoparia), morningglory (pitted morningglory, Ipomoea lacunosa), nutsedge, purple (purple nutsedge, Cyperus rotundus), ragweed (common ragweed, Ambrosia elatior), mustard, black (black mustard, Brassica nigra), guineagrass (Panicum maximum), dallisgrass (Paspalum dilatatum), barnyardgrass (Echinochloa crus-galli), sandbur (southern sandbur, Cenchrus echinatus), sowthistle (common sowthistle, Sonchus oleraceous), Italian ryegrass (Lolium multiflorum), signalgrass (broadleaf signalgrass, Brachiaria platyphylla), dayflower (Virginia (VA) dayflower, Commelina virginica), bluegrass (annual bluegrass, Poa annua), quackgrass (Elytrigia repens), mallow (common mallow, Malva sylvestris), buckwheat, wild (wild buckwheat, Polygonum convolvulus), leafy spurge (Euphorbia esula), chickweed (common chickweed, Stellaria media), wild poinsettia (Euphorbia heterophylla), and pigweed (Amaranthus retroflexus) were planted into a blend of loam soil and sand and treated preemergence with test chemicals formulated in a non-phytotoxic solvent mixture which included a surfactant.
# (§2) Treated plants and controls were maintained in a greenhouse for 21 days, after which time all species were compared to controls and visually evaluated. Plant response ratings, summarized in Table F, are based on a scale of 0 to 100 where 0 is no effect and 100 is complete control. A dash (-) response means no test result.
# chickweed = assay: Test F preemergence; type: in vivo, Stellaria media; conditions: 21 days, scale 0 to 100
# From the text: as §1, §2
# leafy spurge = assay: Test F preemergence; type: in vivo, Euphorbia esula; conditions: 21 days, scale 0 to 100
# From the text: as §1, §2
# field violet = assay: Test D preemergence; type: in vivo, Viola arvensis; conditions: for pest or weed control at 16 g/ha / pest or weed control at 31 g/ha / pest or weed control at 62 g/ha / pest or weed control at 125 g/ha: Viola arvensis, pre-emergence; for pest or weed control at 16 g/ha: read-out: Plant response rating, Field Violet; for pest or weed control at 31 g/ha / pest or weed control at 62 g/ha / pest or weed control at 125 g/ha: scale 0-100, read-out: Plant response rating, Field Violet
# From the text: (§3) Seeds of plant species selected from bluegrass (annual bluegrass, Poa annua), blackgrass (Alopecurus myosuroides), canarygrass (littleseed canarygrass, Phalaris minor), chickweed (common chickweed, Stellaria media), galium (catchweed bedstraw, Galium aparine), bromegrass, downy (downy bromegrass, Bromus tectorum), field poppy (Papaver rhoeas), field violet (Viola arvensis), green foxtail (Setaria viridis), deadnettle (henbit deadnettle, Lamium amplexicaule), Italian ryegrass (Lolium multiflorum), kochia (Kochia scoparia), lambsquarters (Chenopodium album), oilseed rape (Brassica napus), pigweed (Amaranthus retroflexus), chamomile (scentless chamomile, Matricaria inodora), Russian thistle (Salsola kali), speedwell (bird's-eye speedwell, Veronica persica), spring barley (Hordeum vulgare), spring wheat (Triticum aestivum), wild buckwheat (Polygonum convolvulus), wild mustard (Sinapis arvensis), wild oat (Avena fatua), wild radish (Raphanus raphanistrum), windgrass (Apera spica-venti), winter barley (Hordeum vulgare), and winter wheat (Triticum aestivum) were planted into a silt loam soil and treated preemergence with test chemicals formulated in a non-phytotoxic solvent mixture which included a surfactant.
# (§4) At the same time, these species were planted in pots containing Redi-Earth® planting medium (Scotts Company, 14111 Scottslawn Road, Marysville, Ohio 43041) comprising spaghnum peat moss, vermiculite, wetting agent and starter nutrients and treated with postemergence applications of the test chemicals formulated in the same manner. Plants ranged in height from 2 to 18 cm (1- to 4-leaf stage). Treated plants and controls were maintained in a controlled growth environment for 7 to 21 days after which time all species were compared to controls and visually evaluated. Plant response ratings, summarized in Table D, are based on a scale of 0 to 100 where 0 is no effect and 100 is complete control. A dash (-) response means no test result.
# wild oat = assay: Test D preemergence; type: in vivo, Avena fatua; conditions: for pest or weed control at 16 g/ha / pest or weed control at 31 g/ha / pest or weed control at 62 g/ha / pest or weed control at 125 g/ha: Avena fatua, pre-emergence; for pest or weed control at 16 g/ha: read-out: Plant response rating, Oat, Wild; for pest or weed control at 31 g/ha / pest or weed control at 62 g/ha / pest or weed control at 125 g/ha: scale 0-100, read-out: Plant response rating, Oat, Wild
# From the text: as §3, §4
# pigweed = assay: Test D preemergence; type: in vivo, Amaranthus retroflexus; conditions: for pest or weed control at 16 g/ha / pest or weed control at 31 g/ha: read-out: Plant response rating, Pigweed
# From the text: as §3, §4
# winter wheat = assay: Test D postemergence; type: in vivo, Triticum aestivum; conditions: for plant injury at 16 g/ha / plant injury at 31 g/ha / plant injury at 62 g/ha / plant injury at 125 g/ha: Triticum aestivum, post-emergence; for plant injury at 16 g/ha: scale 0-100, read-out: Plant response rating, Wheat, Winter; for plant injury at 31 g/ha / plant injury at 62 g/ha / plant injury at 125 g/ha: read-out: Plant response rating, Wheat, Winter
# From the text: as §3, §4
# spring wheat = assay: Test D postemergence; type: in vivo, Triticum aestivum; conditions: for plant injury at 16 g/ha / plant injury at 31 g/ha / plant injury at 62 g/ha / plant injury at 125 g/ha: Triticum aestivum, post-emergence; for plant injury at 16 g/ha: scale 0-100, read-out: Plant response rating, Wheat, Spring; for plant injury at 31 g/ha / plant injury at 62 g/ha / plant injury at 125 g/ha: read-out: Plant response rating, Wheat, Spring
# From the text: as §3, §4
# [1] = 16 g ai/ha, scale 0 (no effect) to 100 (complete control)
# [2] = Amaranthus retroflexus, pre-emergence, 16 g ai/ha, scale 0 (no effect) to 100 (complete control)
# [3] = Amaranthus retroflexus, pre-emergence, 31 g ai/ha, scale 0 (no effect) to 100 (complete control)
# [4] = Amaranthus retroflexus, pre-emergence, 125 g ai/ha, scale 0-100, read-out: Plant response rating, Pigweed
# [5] = 31 g ai/ha, scale 0 to 100 (0 no effect, 100 complete control)
# [6] = 62 g ai/ha, scale 0 to 100 (0 no effect, 100 complete control)
# [7] = 125 g ai/ha, scale 0 to 100 (0 no effect, 100 complete control)
Compound,"Plant response rating, Sandbur (sandbur; 16 g ai/ha)","Plant response rating, Sandbur (sandbur; 31 g ai/ha)","Plant response rating, Sandbur (sandbur; 62 g ai/ha)","Plant response rating, Sandbur (sandbur; 125 g ai/ha)","Plant response rating, Sandbur (sandbur; 250 g ai/ha)","Plant response rating, Chickweed (chickweed; 16 g ai/ha)","Plant response rating, Chickweed (chickweed; 31 g ai/ha)","Plant response rating, Chickweed (chickweed; 62 g ai/ha)","Plant response rating, Chickweed (chickweed; 125 g ai/ha)","Plant response rating, Chickweed (chickweed; 250 g ai/ha)","Plant response rating, Leafy Spurge (leafy spurge; 16 g ai/ha)","Plant response rating, Leafy Spurge (leafy spurge; 31 g ai/ha)","Plant response rating, Leafy Spurge (leafy spurge; 62 g ai/ha)","Plant response rating, Leafy Spurge (leafy spurge; 125 g ai/ha)","Plant response rating, Leafy Spurge (leafy spurge; 250 g ai/ha)",pest or weed control at 16 g/ha (field violet; [1]) [%],pest or weed control at 31 g/ha (field violet; 31 g ai/ha) [%],pest or weed control at 62 g/ha (field violet; 62 g ai/ha) [%],pest or weed control at 125 g/ha (field violet; 125 g ai/ha) [%],pest or weed control at 16 g/ha (wild oat; [1]) [%],also measured
"N#Cc1cccc(Oc2ncc(F)cn2)c1-n1cc(C(F)(F)F)cn1 [Compound 79, 3-[(5-fluoro-2-pyrimidinyl)oxy]-2-[4-(trifluoromethyl)-1H-pyrazol-1-yl]benzonitrile]",10,15,95,98,100,98,100,100,100,100,95,98,100,100,100,,,,,,
N#Cc1cccc(Oc2ncc(Cl)cn2)c1-n1cc(OC(F)F)cn1 [Compound 97],0,10,25,100,100,100,100,100,100,100,98,98,100,100,100,,,,,,
"Fc1cccc(Oc2ncc(Cl)cn2)c1-n1cc(C(F)F)nn1 [Compound 141, 5-chloro-2-[2-[4-(difluoromethyl)-1H-1,2,3-triazol-1-yl]-3-fluorophenoxy]pyrimidine]",,,,,,,,,,,,,,,,100,100,100,100,30,"pest or weed control at 31 g/ha (wild oat; 31 g ai/ha): 65%; pest or weed control at 62 g/ha (wild oat; 62 g ai/ha): 80%; pest or weed control at 125 g/ha (wild oat; 125 g ai/ha): 98%; pest or weed control at 16 g/ha (pigweed; [2]): 98%; pest or weed control at 31 g/ha (pigweed; [3]): 100%; pest or weed control at 62 g/ha (pigweed; Amaranthus retroflexus, pre-emergence, 62 g ai/ha, scale 0-100, read-out: Plant response rating, Pigweed): 100%; pest or weed control at 125 g/ha (pigweed; [4]): 100%; plant injury at 16 g/ha (winter wheat; 16 g ai/ha): 5%; plant injury at 31 g/ha (winter wheat; [5]): 5%; plant injury at 62 g/ha (winter wheat; [6]): 20%; plant injury at 125 g/ha (winter wheat; [7]): 50%; plant injury at 16 g/ha (spring wheat; 16 g ai/ha): 15%; plant injury at 31 g/ha (spring wheat; [5]): 20%; plant injury at 62 g/ha (spring wheat; [6]): 25%; plant injury at 125 g/ha (spring wheat; [7]): 35%"
FCc1cccc(Oc2ncc(Cl)cn2)c1-n1cc(I)cn1 [Compound 245],,,,,,,,,,,,,,,,,,,,,"Plant response rating, Field Violet (field violet; [1]): 55; Plant response rating, Field Violet (field violet; 31 g ai/ha, scale 0-100): 95; Plant response rating, Field Violet (field violet; 62 g ai/ha, scale 0-100): 100; Plant response rating, Field Violet (field violet; 125 g ai/ha, scale 0-100): 100; Plant response rating, Oat, Wild (wild oat; [1]): 0; Plant response rating, Oat, Wild (wild oat; 31 g ai/ha, scale 0-100): 5; Plant response rating, Oat, Wild (wild oat; 62 g ai/ha, scale 0-100): 20; Plant response rating, Oat, Wild (wild oat; 125 g ai/ha, scale 0-100): 15; Plant response rating, Pigweed (pigweed; [1]): 98; Plant response rating, Pigweed (pigweed; 31 g ai/ha, scale 0 (no effect) to 100 (complete control)): 100; Plant response rating, Pigweed (pigweed; 125 g ai/ha, scale 0-100): 100; Plant response rating, Wheat, Winter (winter wheat; 16 g ai/ha, scale 0-100): 5; Plant response rating, Wheat, Winter (winter wheat; [5]): 10; Plant response rating, Wheat, Winter (winter wheat; [6]): 10; Plant response rating, Wheat, Winter (winter wheat; [7]): 10; Plant response rating, Wheat, Spring (spring wheat; 16 g ai/ha, scale 0-100): 10; Plant response rating, Wheat, Spring (spring wheat; [5]): 10; Plant response rating, Wheat, Spring (spring wheat; [6]): 10; Plant response rating, Wheat, Spring (spring wheat; [7]): 20"
"N#Cc1cccc(Oc2ncc(Cl)cn2)c1-n1cc(OCC(F)(F)F)cn1 [Compound 274, 3-[(5-chloro-2-pyrimidinyl)oxy]-2-[4-(2,2,2-trifluoroethoxy)-1H-pyrazol-1-yl]benzonitrile]",5,20,70,95,100,98,98,100,100,100,100,98,100,100,100,75,100,100,100,0,pest or weed control at 31 g/ha (wild oat; 31 g ai/ha): 0%; pest or weed control at 62 g/ha (wild oat; 62 g ai/ha): 15%; pest or weed control at 125 g/ha (wild oat; 125 g ai/ha): 25%; pest or weed control at 16 g/ha (pigweed; [2]): 70%; pest or weed control at 31 g/ha (pigweed; [3]): 100%; pest or weed control at 125 g/ha (pigweed; [4]): 100%; plant injury at 16 g/ha (winter wheat; 16 g ai/ha): 10%; plant injury at 31 g/ha (winter wheat; [5]): 20%; plant injury at 62 g/ha (winter wheat; [6]): 20%; plant injury at 125 g/ha (winter wheat; [7]): 30%; plant injury at 16 g/ha (spring wheat; 16 g ai/ha): 10%; plant injury at 31 g/ha (spring wheat; [5]): 15%; plant injury at 62 g/ha (spring wheat; [6]): 15%; plant injury at 125 g/ha (spring wheat; [7]): 25%
